Data published in patent US20240376052A1, “N-SUBSTITUTED INDOLE DERIVATIVES AS SEROTONERGIC AGENTS USEFUL FOR THE TREATMENT OF DISORDERS RELATED THERETO” (Mindset Pharma Inc., priority 2021, published 2024).

What was measured:
mice [1] = experiment: Mouse 5-HT syndrome assay; type: in vivo
Experimental: (§1) The effect of different doses of representative compounds of Formula I were evaluated on head-twitch response (HTR) and other behavioural responses indicative of serotonin syndrome as behavior-based models of psychedelic activity.

C57BL/6J mice = experiment: Mouse head twitch; type: in vivo; conditions: mouse
Experimental: as §1
Male, C57BL/6J mice (body weight range 20-30 g) were dosed with the appropriate dose of test article, and following a 1-minute pre-treatment time, placed in individual observation chambers. Animals were visually assessed for the incidence head twitches continuously over a 1 hr period. Head twitches were defined as a rapid jerk of the head which was not elicited by an external tactile stimulus (Come and Pickering, Psychopharmacologia, 1967, 11(1): 65-78). Each head twitch was individually counted by a trained observer, and the data expressed as the mean+SEM of 6-10 mice per group. Mice were used in a single experiment only.

human 5-HT2A receptor = human 5-HT2A receptor (Homo sapiens (Human), UniProt P28223); experiment: Human 5-HT2A radioligand binding assay ([3H]-ketanserin)
mice [2] = experiment: Mouse locomotor activity and rearing assay; conditions: 1-30 mg/kg, compared with 5-MeO-DMT
[3] = Liver microsomes stability, mouse; conditions: for Remaining Percentage (%): Mouse
Experimental: (§2) The objective of this study was to estimate in vitro metabolic stability of representative compounds of the application in pooled human and male mouse liver microsomes. The concentrations of parent compounds in reaction systems were evaluated by LC-MS/MS for estimating the stability in pooled human and male mouse liver microsomes. The in vitro intrinsic clearances of test compounds were determined as well.
(§3) A master solution in the “Incubation Plate” containing phosphate buffer, ultra-pure H2O, MgCl2 solution and liver microsomes was made according to Table 3. The mixture was pre-warmed at 37° C. water bath for 5 minutes.
(§4) 40 μL of 10 mM NADPH solution was added to each well. The final concentration of NADPH was 1 mM. The negative control samples were prepared by replacing NADPH with 40 μL of ultra-pure H2O. Samples were prepared in duplicate. Negative controls were prepared in singlet.
(§5) The reaction was started with the addition of 4 μL of 200 μM test compounds or control compounds to each master solution to get the final concentration of 2 μM. This study was performed in duplicate.
(§6) Aliquots of 50 μL were taken from the reaction solution at 0, 15, 30, 45 and 60 minutes. The reaction solutions were stopped by the addition of 4 volumes of cold methanol with IS (100 nM alprazolam, 200 nM imipramine, 200 nM labetalol and 2 μM ketoprofen). Samples were centrifuged at 3,220 g for 40 minutes. Aliquot of 90 μL of the supernatant was mixed with 90 μL of ultra-pure H2O and then was used for LC-MS/MS analysis.
(§7) LC/MS analysis was performed for all samples from this study using a Shimadzu liquid chromatograph separation system equipped with degasser DGU-20A5R; solvent delivery unit LC-30AD; system controller SIL-30AC; column oven CTO-30A; CTC Analytics HTC PAL System. Mass spectrometric analysis was performed using an Triple Quad™ 5500 instrument.
(§8) All calculations were carried out using Microsoft Excel. Peak area ratios of test compound to internal standard (listed in the below table) were determined from extracted ion chromatograms.
(§9) All calculations were carried out using Microsoft Excel. Peak areas were determined from extracted ion chromatograms. The slope value, k, was determined by linear regression of the natural logarithm of the remaining percentage of the parent drug vs. incubation time curve.
(§10) The in vitro half-life (in vitro t1/2) was determined from the slope value:
(§11) Conversion of the in vitro t1/2(min) into the in vitro intrinsic clearance (in vitro CLint, in μL/min/mg proteins) was done using the following equation (mean of duplicate determinations): […]

[4] = Liver microsomes stability, rat; conditions: for Remaining Percentage (%): Rat
Experimental: as §2, §3, §4, §5, §6, §7, §8, §9, §10, §11

Sprague-Dawley rats = experiment: Drug discrimination in the rat (5-MeO-DMT cue); type: in vivo
Experimental: Male Sprague-Dawley rats were initially food restricted by presentation of 18-20 g food at day end (single housing). After 7 days acclimatisation to the food restriction procedure, they were trained daily to lever press for food (45 mg Bioserve pellet) in standard 2-lever operant conditioning chambers controlled by Med-PC software over a period of 1 week (Med. Associates Ins., St. Albans, VT). The rats were trained to lever press for food to an FR10 value (i.e 10 lever presses for a single food reward). Once stable food responding was acquired to both response levers, discrimination training began. […] Training sessions lasted 30-min or until the delivery of 50 pellets and continued until the animals attained appropriate stimulus control (defined as six consecutive sessions where animals made no more than 16 lever presses before the delivery of the first reward, and at least 95% total responses on the appropriate lever). The rats continued to receive daily food ration in their home cage at day end.
Once trained, tests of substitution were conducted. […] Test sessions continued until 50 pellets had been obtained or 30 min had elapsed. During these sessions response rate was also measured.

[5] = Liver microsomes stability, dog; conditions: for Remaining Percentage (%): Dog
[6] = Liver microsomes stability, human; conditions: for Remaining Percentage (%): Human
Experimental: as §2, §3, §4, §5, §6, §7, §8, §9, §10, §11

CCCCC/C=C\C/C=C\CCCCCCCC(=O)n1cc(CCN(C)C)c2cc(OC)ccc21 [Compound I-1, (9Z,12Z)-1-(3-(2-(Dimethylamino)ethyl)-5-methoxy-1H-indol-1-yl)octadeca-9,12-dien-1-one]
signs of 5-HT syndrome (whole body twitches, FPT, Straub tail) (mice [1]; up to 60 mg/kg SC): did not induce signs of 5-HT syndrome
head twitch response expression (C57BL/6J mice; 1-60 mg/kg SC): robust head twitch response
ED50 (C57BL/6J mice; SC, read-out: ED50, head twitch response): 2.8 mg/kg
duration of HT expression (C57BL/6J mice; at 10-30 mg/kg): 0 to 30 min
IC50 (human 5-HT2A receptor): < 2 µM
motor activity or rearing (mice [2]): did not reduce motor activity or rearing to the same extent as 5-MeO-DMT

[2H]C([2H])(c1cn(C(=O)CCCCCCC/C=C\C/C=C\CCCCC)c2ccccc12)[C@H]1CCCN1C([2H])([2H])[2H] [Compound I-2, (9Z,12Z)-1-(3-(((R)-1-(Methyl-d3)pyrrolidin-2-yl)methyl-d2)-1H-indol-1-yl)octadeca-9,12-dien-1-one]
signs of 5-HT syndrome (mice [1]; doses of up to 30 mg/kg): no signs of 5-HT syndrome
Predicted hepatic CL ([3]; Mouse liver microsomes): 50.97 mL/min/kg
Remaining Percentage (%) ([3]; With NADPH, 0 min): 100.00%
Remaining Percentage (%) ([3]; With NADPH, 30 min): 71.53%
Remaining Percentage (%) ([3]; With NADPH, 60 min): 44.66%
Remaining Percentage (%) ([3]; Without NADPH, 0 min): 100.00%
Remaining Percentage (%) ([3]; Without NADPH, 30 min): 95.81%
Remaining Percentage (%) ([3]; Without NADPH, 60 min): 80.93%
CLint scaled at 2 μM ([3]; male, mouse, microsomes): 118 mL/min/kg
half-life at 2 μM ([3]; male, mouse, microsomes): 51.6 min
microsomal CLint at 2 μM ([3]; male, mouse, microsomes): 26.9 µL/min/mg
Predicted hepatic CL ([4]; Rat liver microsomes): 27.34 mL/min/kg
Remaining Percentage (%) ([4]; With NADPH, 0 min): 100.00%
Remaining Percentage (%) ([4]; With NADPH, 30 min): 56.08%
Remaining Percentage (%) ([4]; With NADPH, 60 min): 40.37%
Remaining Percentage (%) ([4]; Without NADPH, 0 min): 100.00%
Remaining Percentage (%) ([4]; Without NADPH, 30 min): 94.64%
Remaining Percentage (%) ([4]; Without NADPH, 60 min): 84.47%
CLint scaled at 2 μM ([4]; rat, microsomes): 54.2 mL/min/kg
half-life at 2 μM ([4]; rat, microsomes): 45.8 min
microsomal CLint at 2 μM ([4]; rat, microsomes): 30.2 µL/min/mg
ED50 (Sprague-Dawley rats; Rattus norvegicus, read-out: ED50, generalization to the 5-MeO-DMT cue): ~30 mg/kg
level of partial generalization to the 5-MeO-DMT cue (Sprague-Dawley rats; rats trained to 1 mg/kg 5-MeO-DMT vs saline, FIG. 7): ~60%
Predicted hepatic CL ([5]; Dog liver microsomes): 22.14 mL/min/kg
Remaining Percentage (%) ([5]; With NADPH, 0 min): 100.00%
Remaining Percentage (%) ([5]; With NADPH, 30 min): 66.91%
Remaining Percentage (%) ([5]; With NADPH, 60 min): 39.08%
Remaining Percentage (%) ([5]; Without NADPH, 0 min): 100.00%
Remaining Percentage (%) ([5]; Without NADPH, 30 min): 94.42%
Remaining Percentage (%) ([5]; Without NADPH, 60 min): 91.63%
CLint scaled at 2 μM ([5]; dog, microsomes): 78.1 mL/min/kg
half-life at 2 μM ([5]; dog, microsomes): 44.3 min
microsomal CLint at 2 μM ([5]; dog, microsomes): 31.3 µL/min/mg
head twitch response (C57BL/6J mice; doses of up to 30 mg/kg): robust head twitch response
IC50 (human 5-HT2A receptor): < 2 µM
Predicted hepatic CL ([6]; Human liver microsomes): 5.79 mL/min/kg
Remaining Percentage (%) ([6]; With NADPH, 0 min): 100.00%
Remaining Percentage (%) ([6]; With NADPH, 30 min): 87.61%
Remaining Percentage (%) ([6]; With NADPH, 60 min): 82.52%
Remaining Percentage (%) ([6]; Without NADPH, 0 min): 100.00%
Remaining Percentage (%) ([6]; Without NADPH, 30 min): 114.91%
Remaining Percentage (%) ([6]; Without NADPH, 60 min): 83.75%
CLint scaled at 2 μM ([6]; human, microsomes): 8.03 mL/min/kg
half-life at 2 μM ([6]; human, microsomes): 216 min
microsomal CLint at 2 μM ([6]; human, microsomes): 6.4 µL/min/mg
